Assay results as given in patent US12698269B2, “1-aryltetrahydropyridazine-3,5-dione derivative or salt thereof and insecticidal agent containing the compound and method for using same” (NIHON NOHYAKU CO., LTD., priority 2022, dated 2026).

Tests used:
Format in all cases: in vivo
[1] = system: Small Brown Planthopper (Laodelphax striatellus); assay: Insecticidal test on small brown planthopper, dip treatment of rice seedlings; settings: 192 h, rice seedling dip, 8 days after inoculation, read-out: insecticidal efficacy (corrected mortality rate) against small brown planthopper
Source text: Insecticidal Test on Small Brown Planthopper (Laodelphax striatellus)
The compounds represented by the general formula (1) of the present invention or salts thereof were separately dispersed in water and diluted to 50 ppm or 500 ppm. Rice plant seedlings (variety: Nihonbare) were dipped in the agrochemical dispersions for 30 seconds. After air-dried, each seedling was put into a separate glass test tube and inoculated with ten 3rd-instar larvae of small brown planthopper, and then the glass test tubes were capped with cotton plugs. At 8 days after the inoculation, the numbers of surviving larvae and dead larvae were counted, the corrected mortality rate was calculated according to the formula shown below, and the insecticidal efficacy was evaluated according to the criteria of Test Example 1. Corrected mortality rate (%)=(Survival rate in a non-treatment plot−Survival rate in a treatment plot)/(Survival rate in a non-treatment plot)×100 [Expression 2]

[2] = system: Diamondback moth (Plutella xylostella); assay: Insecticidal test on diamondback moth, dip treatment of Chinese cabbage seedlings with laid eggs; settings: 144 h, 6 days after treatment, read-out: insecticidal efficacy (corrected mortality rate) against diamondback moth
Source text: Insecticidal Test on Diamondback moth (Plutella xylostella)
Adults of diamondback moth were released onto Chinese cabbage seedlings and allowed to lay eggs thereon. At 2 days after the release of the adults, the Chinese cabbage seedlings with laid eggs were dipped for about 30 seconds in agrochemical dispersions diluted to 50 ppm or 500 ppm, each of which contained a different compound represented by the general formula (1) of the present invention as an active ingredient. After air-dried, the seedlings were kept in a thermostatic chamber at 25° C. At 6 days after the dip treatment, the number of surviving larvae per plot was counted, the corrected mortality rate was calculated according to the formula shown below, and the insecticidal efficacy was evaluated according to the criteria shown below. This test was conducted in triplicate using 10 adults of diamondback moth per plot. Corrected mortality rate (%)=(Survival rate in a non-treatment plot−Survival rate in a treatment plot)/(Survival rate in a non-treatment plot)×100 [Expression 1] Criteria: • A: the mortality rate is 100%. • B: the mortality rate is 90 to 99%. • C: the mortality rate is 80 to 89%. • D: the mortality rate is 50 to 79%. • E: the mortality rate is 0 to 49%.

[3] = system: Western Flower thrips (Frankliniella occidentalis); assay: Insecticidal test on western flower thrips, kidney bean leaf pieces; settings: 96 h, 4 days after treatment, read-out: insecticidal efficacy (corrected mortality rate) against western flower thrips
Source text: Insecticidal Test on Western Flower thrips (Frankliniella occidentalis)
Female adults of western flower thrips were inoculated onto kidney bean leaf pieces, and allowed to lay eggs thereon for one day, then the female adults were removed. After 3 days, the hatched larvae on the leaf pieces were counted, and then the agrochemical dispersions diluted to 50 ppm or 500 ppm, each of which contained the compound described in Tables 1 to 4 as an active ingredient were applied. The number of larvae of the species surviving at 4 days after the treatment was counted, and the corrected mortality rate was calculated according to the formula shown below, and the insecticidal efficacy was evaluated according to the criteria of Test Example 1. This test was conducted in duplicate. Corrected mortality rate (%)=(Survival rate in a non-treatment plot−Survival rate in a treatment plot)/(Survival rate in a non-treatment plot)×100 [Expression 3]

CSC(Nc1ccc(F)cc1)=C1C(=O)CN(c2ccc(C#N)nc2)N(C(=O)C2CC2)C1=O [Compound No. 1-44, (4EZ)-5-(2-(cyclopropanecarbonyl)-4-(((4-fluorophenyl)amino)(methylthio)methylene)-3,5-dioxo-tetrahydropyridazin-1(2H)-yl)picolinonitrile]
100%: mortality at 50 ppm [1] | mortality at 500 ppm [1] | mortality at 500 ppm [2] | mortality at 50 ppm [3] | mortality at 500 ppm [3]

CSC(Nc1ccc(F)cc1)=C1C(=O)CN(c2ccc(C(F)(F)F)nc2)N(C(=O)OC(C)(C)C)C1=O [Compound No. 1-63, tert-butyl (5EZ)-5-(((4-fluorophenyl)amino)(methylthio)methylene)-4,6-dioxo-2-[6-(trifluoromethyl)pyridin-3-yl]-tetrahydropyridazine-1(2H)-carboxylate]
100%: mortality at 50 ppm [1] | mortality at 500 ppm [1] | mortality at 50 ppm ([2]; 50 ppm) | mortality at 500 ppm [2] | mortality at 50 ppm [3] | mortality at 500 ppm [3]

CCCNC(=O)N1C(=O)C(=C(Nc2ccc(F)cc2)SC)C(=O)CN1c1ccc(C#N)nc1 [Compound No. 1-182, (5EZ)-2-(6-cyanopyridin-3-yl)-5-(((4-fluorophenyl)amino)(methylthio)methylene)-4,6-dioxo-N-propyl-tetrahydropyridazine-1(2H)-carboxamide]
100%: mortality at 50 ppm [1] | mortality at 500 ppm [1]

CSC(Nc1ccc(F)cc1)=C1C(=O)CN(c2ccc(C#N)nc2)N(C)C1=O [Compound No. 1-197, (4EZ)-5-(4-(((4-fluorophenyl)amino)(methylthio)methylene)-2-methyl-3,5-dioxo-tetrahydropyridazin-1(2H)-yl)picolinonitrile]
100%: mortality at 50 ppm [1] | mortality at 500 ppm [1] | mortality at 50 ppm [3] | mortality at 500 ppm [3]
